Publication PMC6720199, “Antioxidant, Anti-Inflammatory, and Multidrug Resistance Modulation Activity of Silychristin Derivatives” (Antioxidants, 2019)

target: T1, P-glycoprotein (P-gp, ABCB1) (Homo sapiens, UniProt P08183); assay: Pgp-Glo luminescent ATPase assay, P-gp membranes; assay type: biochemical
T1 construct: P-gp containing membranes of the commercial Pgp-Glo Assay System (Promega; kit membranes carry recombinant human P-gp); full length, not purified
From the text: Pgp-Glo luminescent ATPase assay, P-gp membranes on P-glycoprotein (P-gp, ABCB1)

T1 sequence (P08183 whole entry): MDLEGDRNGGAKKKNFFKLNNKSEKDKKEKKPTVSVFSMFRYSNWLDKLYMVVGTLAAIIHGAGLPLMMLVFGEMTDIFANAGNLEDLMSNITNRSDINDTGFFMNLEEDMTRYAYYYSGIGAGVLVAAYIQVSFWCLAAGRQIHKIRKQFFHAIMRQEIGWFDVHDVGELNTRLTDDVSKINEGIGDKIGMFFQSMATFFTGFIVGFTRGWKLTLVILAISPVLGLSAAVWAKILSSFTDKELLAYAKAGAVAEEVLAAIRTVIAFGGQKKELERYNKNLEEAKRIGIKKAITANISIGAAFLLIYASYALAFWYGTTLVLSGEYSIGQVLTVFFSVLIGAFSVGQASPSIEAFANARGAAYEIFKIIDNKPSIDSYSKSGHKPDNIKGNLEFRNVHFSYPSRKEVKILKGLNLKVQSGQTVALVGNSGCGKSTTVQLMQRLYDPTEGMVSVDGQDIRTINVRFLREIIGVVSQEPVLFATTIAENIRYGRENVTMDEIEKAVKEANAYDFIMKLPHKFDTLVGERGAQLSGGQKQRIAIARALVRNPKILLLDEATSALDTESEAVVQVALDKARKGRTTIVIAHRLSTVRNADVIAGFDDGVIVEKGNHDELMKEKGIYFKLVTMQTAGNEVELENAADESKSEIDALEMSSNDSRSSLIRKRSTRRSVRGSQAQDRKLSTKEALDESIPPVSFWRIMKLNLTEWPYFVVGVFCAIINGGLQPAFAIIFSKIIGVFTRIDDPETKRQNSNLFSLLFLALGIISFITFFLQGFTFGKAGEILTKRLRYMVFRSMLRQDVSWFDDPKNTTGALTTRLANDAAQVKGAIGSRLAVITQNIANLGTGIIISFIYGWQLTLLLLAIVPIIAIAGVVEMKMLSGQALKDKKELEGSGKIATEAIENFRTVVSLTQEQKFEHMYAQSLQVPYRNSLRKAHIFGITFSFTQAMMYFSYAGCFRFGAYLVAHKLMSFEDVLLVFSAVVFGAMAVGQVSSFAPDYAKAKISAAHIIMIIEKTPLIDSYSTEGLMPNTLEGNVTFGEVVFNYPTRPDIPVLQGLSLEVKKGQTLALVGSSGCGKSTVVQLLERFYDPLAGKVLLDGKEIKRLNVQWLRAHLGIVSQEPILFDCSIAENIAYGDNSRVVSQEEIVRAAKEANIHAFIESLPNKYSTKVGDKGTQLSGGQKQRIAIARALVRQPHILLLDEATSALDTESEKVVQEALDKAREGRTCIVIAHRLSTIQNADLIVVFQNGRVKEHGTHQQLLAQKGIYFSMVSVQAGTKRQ

| IC50 [µM] | SMILES |
| --- | --- |
| 15.6 ± 0.5 | COc1cc([C@@H]2Oc3c(O)cc(-c4oc5cc(O)cc(O)c5c(=O)c4O)cc3[C@H]2CO)ccc1O [2,3-Dehydrosilychristin A] |
| 16.8 ± 0.2 | COc1cc(-c2oc3c(O)cc([C@H]4Oc5cc(O)cc(O)c5C(=O)[C@@H]4O)cc3c2C)ccc1O [Anhydrosilychristin] |
| 21 ± 1 | COc1cc([C@@H]2Oc3c(O)cc([C@H]4Oc5cc(O)cc(O)c5C(=O)[C@@H]4O)cc3[C@H]2CO)ccc1O [Silychristin A] |
